Legend:
[1] = tested on: pressurized resistance cerebral arteries; assay: Artery diameter measurement, pressurized rat middle cerebral arteries; conditions: for Integral (area under the curve) from the time of drug application until complete washout of effect: change in diameter as a function of time; for Effect remaining after ~6 min of washout (percentual increase from diameter before agent application): when vehicle effect had totally vanished
Description: (§1) Artery Diameter Measurement. Middle cerebral arteries were isolated from adult male Sprague-Dawley rats (=250 g) or 8- to 12-week-old β1-knockout and C57BL/6 control mice. Rats and mice were decapitated using a guillotine and sharp scissors, respectively. These procedures were approved by the Institutional Animal Care and Use Committee from The University of Tennessee Health Science Center, an AMLAC-accredited institution. Pressurization of arteries was performed as described (Liu et al., 2004). Endothelium was removed by passing an air bubble into the vessel lumen for 90 sec. Diameter changes were monitored through an inverted microscope (Nikon Eclipse TS100, Nikon Corp., Tokyo, Japan), recorded on camera (Sanyo VCB-3512T, Sanyo Electric Corp., Japan), and transferred to a computer. Diameter data were acquired and analyzed using IonWizard 4.4 software (IonOptics Corp., Milton, Mass., United States of America).
Pressurized arteries were extraluminally perfused with physiological saline solution (PSS) (Liu et al., 2004) at a constant rate of 3.75 ml/min using a peristaltic pump Dynamax RP-1 (Rainin Instrument, Inc., Oakland, Calif., United States of America). At this rate, complete washout of the iberiotoxin (Ibtx) effect required >45 min. To keep basal tone under steady behavior, we shortened this period by increasing flow rate ˜3 times during washout of Ibtx, which sometimes evoked a flow-induced dilation (FIG. 1A). Equal volumes (25 ml) of vehicle- vs. LC-containing solutions were applied at equal, constant rate (see above) to the pressurized arterial segment in the chamber via a gravity system. Drugs were dissolved to make stock solutions (see Chemicals) and diluted in PSS to final concentration.
Chemicals. All chemicals were purchased from Sigma (St. Louis, Mo., United States of America), with the exception of 5β-cholanic acid 3α-ol (LC) (Steraloids, Inc., Newport, R.I., United States of America) and Ibtx (Alomone Labs Ltd., Jerusalem, Israel). On the day of the experiment, an LC stock solution (333 mM) in dimethyl sulfoxide (DMSO) was freshly prepared by sonication for 5 min. For arterial tone experiments, the LC stock was diluted 1/10 in DMSO and further diluted in PSS to render final LC concentration. Solution containing vehicle (0.1% DMSO; V/V) was used as control perfusion. For electrophysiological recordings, the LC stock solution was diluted 1/10 in 95% ethanol and further diluted with bath solution to render final LC concentration (3-1,000 μM). The DMSO/ethanol vehicle (≦0.1/≦0.86% final concentrations) in bath solution was used as control.
Data Analysis. Artery diameter response to each compound is shown as a percentage of the diameter obtained before compound application. Arterial diameter and electrophysiological data were analyzed with IonWizard 4.4 (IonOptics Corp., Milton, Mass., United States of America) and pCLAMP 8.0 (Molecular Devices, Union City, Calif., United States of America). Further analysis, plotting, and fitting were conducted using Origin 7.0 (Originlab Corp., Northampton, Mass., United States of America) and InStat 3.0 (GraphPad Software Inc., San Diego, Calif., United States of America).
After myogenic tone development at 60 mm Hg, intact arteries reached a diameter of 154.4±5.2 μm (n=17). Maximal contraction and dilation were checked by perfusing the vessel with 60 mM KCl at the beginning, and Ca^2+-free solution at the end of each experiment (FIGS. 1A & 1B). In all cases (n=17), application of 45 μM LC, that is, concentrations well below LC's critical micellar concentration (CMC) (≧1 mM under our recording conditions) (Roda et al., 1995) caused a significant increase in peak arterial diameter: +6% on top of a transient increase in diameter caused by vehicle-containing solution (FIGS. 1A-1C). […]

[2] = tested on: pressurized cerebral arteries from β1-knockout (KCNMB1-knockout) mice; assay: Artery diameter measurement, pressurized cerebral arteries from BK β1-knockout mice; parameters: species or system mouse; conditions: 55 nM
Description: as §1, with “America). […]” for “America).”
Data Analysis. […] Arterial diameter and electrophysiological data were analyzed with IonWizard 4.4 (IonOptics Corp., Milton, Mass., United States of America) and pCLAMP 8.0 (Molecular Devices, Union City, Calif., United States of America). […]
To determine the impact of LC targeting of BK β1-subunits on organ function, LC action on the arterial diameter of pressurized cerebral arteries was evaluated from β1-knockout vs. wt C57BU6 mice (controls). […]

[3] = 45 μM, listed as Lithocholic acid

Row | Compound | Change in diameter caused by LC in the presence of Ibtx ([1]; 45 μM LC + 55 nM Ibtx) | Change in peak diameter caused by LC in the presence of 4-AP (over pre-LC values) ([1]; 45 μM LC + 0.8 mM 4-AP) | Integral (area under the curve) from the time of drug application until complete washout of effect ([1]; 45 μM) | Integral (area under the curve) from the time of drug application until complete washout of effect [1, 3] | Expected increase in cerebral blood flow (CBF) ([1]; 45 μM, from diameter change by a factor of ~3 (Gourley and Heistad, 1984)) | Increase in peak arterial diameter on top of the transient increase caused by vehicle ([1]; 45 μM, intact arteries) | Rise time ([1]; 45 μM, intact arteries with myogenic tone at 60 mm Hg) | Effect remaining after ~6 min of washout (percentual increase from diameter before agent application) ([1]; 45 μM) | Effect remaining after ~6 min of washout (percentual increase from diameter before agent application) [1, 3] | Emax at 45 µM ([1]; Rattus norvegicus, 45 μM, intact arteries, read-out: Maximal effect (% from diameter before compound application)) | Decrease in diameter of intact arteries ([1]; 55 nM, bath application) | Decrease in diameter [2]
1 | C[C@H](CCC(=O)O)[C@H]1CC[C@H]2[C@@H]3CC[C@@H]4C[C@H](O)CC[C@]4(C)[C@H]3CC[C@]12C [LC, 5β-cholanic acid 3α-ol] | −3.4% | +6% | 18,369±3,964 | 18,369 ± 3,964 | ~30% | +6% | 231.9 ± 21.9 s | 109.9±1.7% | 109.9 ± 1.7 % | 117 ± 1.9% | – | –
2 | iberiotoxin (QFTDVDCSVSKECWSVCKDLFGVDRGKCMGKKCRCYQ; UniProt P24663 1-37, looked up) [Ibtx, reference compound] | – | – | – | – | – | – | – | – | – | – | −11.8±3.4% | −2.25±0.44%

Reference: patent publication US20080200439A1, “Methods and compositions for modulating BK channel activity and vasodilation” (University of Tennessee Research Foundation, priority 2006, published 2008)
